Test results as given in patent US20250346587A1, “NITROGEN-CONTAINING FIVE-MEMBERED HETEROCYCLIC DERIVATIVES AS CHECKPOINT KINASE 1 INHIBITOR AND USES THEREOF” (SPEROGENIX THERAPEUTICS LIMITED, priority 2022, published 2025).
Values after ≈ are worked out from the molar mass of the structure shown. Read-outs that look alike come from different tables or passages of the source. Blank lines part the entries; values can stand above or below the compound they belong to.

How the values were obtained:
CHK-1 kinase = CHK-1 kinase (Homo sapiens (Human), UniProt O14757); experiment: CHK-1 % inhibition kinase assay (TR-FRET); assay type: biochemical; settings: ATP 15 μM; for inhibition at 0.03 µM / inhibition at 0.3 µM: CHK1 enzyme; for inhibition at 0.03 µM: compound 30 nM; for inhibition at 0.3 µM: compound 300 nM; for IC50: TR-FRET, read-out: CHK1 IC50
CHK-1 kinase, sequence (O14757 whole entry): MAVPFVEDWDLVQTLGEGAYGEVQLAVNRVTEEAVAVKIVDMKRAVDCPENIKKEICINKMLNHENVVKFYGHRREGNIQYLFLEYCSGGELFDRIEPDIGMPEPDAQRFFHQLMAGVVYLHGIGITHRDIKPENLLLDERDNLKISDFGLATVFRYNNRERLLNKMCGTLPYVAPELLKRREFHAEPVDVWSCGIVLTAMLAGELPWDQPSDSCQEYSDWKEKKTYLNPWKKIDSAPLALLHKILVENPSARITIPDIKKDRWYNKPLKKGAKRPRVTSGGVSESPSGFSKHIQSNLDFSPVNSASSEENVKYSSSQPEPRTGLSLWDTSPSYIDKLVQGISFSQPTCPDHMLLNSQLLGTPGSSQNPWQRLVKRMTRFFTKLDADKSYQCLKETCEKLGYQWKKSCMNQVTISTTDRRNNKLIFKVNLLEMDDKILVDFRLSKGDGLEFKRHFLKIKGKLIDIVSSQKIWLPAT
Procedure: Inhibition of CHK-1 kinase or percent inhibition at defined concentrations was determined by TR-FRET assay. Kinase reactions were performed in a 20 μL volume in low-volume 384-well plates (Cat #Corning 4511). The concentration of substrate Fluorescein-CREBtide was maintained at 0.2 μM in the assay, and the kinase reaction buffer consisted of 50 mM HEPES pH 7.5, 0.01% BRIJ-35, 10 mM MgCl2, 1 mM EGTA. Serially diluted compounds (3-fold) in DMSO (0.5% in final reaction) were incubated with cocktail of CHK-1 kinase (6 nM; Cat #PR3959B, ThermoFisher), Fluorescein-CREBtide (0.2 μM; Cat #PV3508, ThermoFisher), ATP (15 μM; Cat #A1852, Sigma), and kinase reaction buffer. After 1 hour kinase reactions at room temperature, 10 μL of Detection mix (8 nM LanthaScreen® Tb-CREB [pSer133] antibody, Cat #PV3542, ThermoFisher with 20 mM EDTA in TR-FRET Buffer, Cat #PV3574, ThermoFisher) was added, and the plate was read with a plate reader (Synergy™ NEO; Biotek) for TR-FRET.
The resulting TR-FRET emission ratio was used to calculate the percent inhibition by normalizing to the control using the following formula: […]

[1] = Microsomal stability assay, human liver microsome; assay type: in vitro ADME; settings: liver microsomes, pH 7.4, 0.2 mg/mL, 1 μM compound, 37° C., read-out: Clint HLM
Procedure: (§1) Incubation mixture contained 0.2 mg/mL microsomes, 1 mmol NADPH, and test compound at 1 μM in 100 mmol potassium phosphate buffer at pH 7.4. The mixtures were incubated at 37° C. for 5, 15, and 30 minutes. Aliquots of the mixtures were taken at 0, 5, 15 and 30 minutes and quenched with chilled Acetonitrile:Methanol (50:50) containing internal standard. Following completion of incubation, samples were centrifuged at 4,000 rpm at 4° C. The supernatant was analyzed by LC-MS/MS and half-life, as well as intrinsic clearance (Clint), were calculated.

[2] = Microsomal stability assay, mouse liver microsome; assay type: in vitro ADME; settings: liver microsomes, pH 7.4, 0.2 mg/mL, 1 μM compound, 37° C., read-out: Clint MLM
Procedure: as §1

[3] = Microsomal stability assay, rat liver microsome; assay type: in vitro ADME; settings: liver microsomes, pH 7.4, 0.2 mg/mL, 1 μM compound, 37° C., read-out: Clint RLM
Procedure: as §1

[4] = Kinetic solubility assay (nephelometry); settings: PBS, 37 °C, pH 7.4, aqueous buffer, kinetic from dmso stock
Procedure: Test articles were serially diluted in DMSO from concentration range of 10 mM to 0.078 mM in 96 well v-bottom dilution plate (#3363, Corning). 1 μL of test article from each well was transferred to 96 well flat bottom clear plates (#655101, Greiner) containing 99 μL of PBS at pH-7.4, which makes the test drug final concentration range from 100 μM to 0.78 μM. Samples were incubated for 1 hour at 37° C. followed by measurement of light scattering at 625 nm with a laser based micro plate Nephelometer (Nephlostar Plus, BMG Labtech). Solubility concentration (μM) was then calculated by segmental regression with Neplometer as Readout.

[5] = Caco-2 cell permeability assay; assay type: in vitro ADME; settings: human; for Papp A→B at 120 min: Caco-2, A to B; for Papp A→B at 120 min / Papp B→A at 120 min: pH 7.4; for Papp B→A at 120 min: Caco-2, B to A
Procedure: After thawed, Caco-2 cells were cultured in the medium containing 10% FBS, 1% Sodium pyruvate, 1% NEAA and 1% Glutamax MEM, then were placed in the incubator containing 5% CO2 at 37° C., and the culture medium then was replaced every 2-3 days. When the confluence reached 80%, the subculture was carried out. Add 5 mL of 1 M HEPES to 500 mL of HBSS for preparing transport buffer (pH 7.4), and the final concentration of HEPES was 10 mM. Before the transport study (day 21-28), take out the culture medium from the cell culture plate, wash it twice with preheated HBSS buffer (10 mM HEPES, pH 7.4), and add 100 μL HBSS buffer to each well. After incubation at 37° C. for 30 minutes, Teer value was measured by cell resistance meter (Millicell-ERS2) to confirm the integrity of monolayer cells. Discard the HBSS buffer, transfer the upper plate containing the cell monolayer membrane to the corresponding receiving plate, add the test compound solution or buffer to the top (side A) and the bottom (side B) respectively, put the cell plate into the corresponding 96 well receiving plate, and add the prepared positive control compound, test compound or HBSS buffer (with 0.5% BSA) on side A or side B of the filter membrane of Transwell cell plate according to the following groups, incubate cell plates at 37° C. When incubated for 5 minutes, 8 μL sample solutions were taken from the side A and the side B respectively and add 72 μL transport buffer (diluted 10 times) as TO of the initial solution. After 120 minutes of incubation, collect the samples at both ends of the filter membrane of Transwell cell plate; take 80 μL sample solution from the receiving side as the sample on the receiving side after transport, meanwhile take 8 μL sample solution from the administration side and then mix with 72 μL transport buffer, the well-mixed solution was used as the sample on the administration side after transport. After collecting bilateral samples, tap gently, discard the remaining solution in the cell plate, wash the cell plate with transport buffer; and to each well, add 100 μL acetonitrile solution containing internal standard working solution to lyse cells; After mixing well by blowing up and down, take 80 μL per well cell lysate as the sample after cell lysis. After collecting all samples in the transport system (TO sample from receiving side and administration side), 160 μL IS/ACN solution was added to each well, 80 μL IS/ACN solution was added to the collected lysate sample, and then seal it. Shake for 10 minutes and store the sample plate at −20° C. before LC-MS/MS analysis.
The following equation are used to calculate the apparent permeability coefficient (Papp, cm/s), the efflux ratio (ER), the solution recovery (% Recovery) and the total recovery (% Total Recovery).
Where, • Vreceiver is the volume of solution at the receiving end (0.25 mL for A to B and 0.1 mL for B to A); • Vdonor is the volume of the solution at the administration end (0.1 mL for A to B and 0.25 mL for B to A); • Vlysate is the volume of cell lysate (0.1 mL); • Area is the relative surface area of the cell monolayer (0.0804 cm^2); • Time is the incubation time (7200 s); • [drug]receiver is the drug concentration (nM) at the receiving end or the control compound; • [drug]donor is the concentration of drug or control compound at the administration end (nM); • [drug]lysate is the concentration of drug or control compound in cell lysate (nM); • [drug]initial is the initial concentration of the test or control compound (nM).

[6] = Caco-2, pH 7.4, Caco-2, solution recovery, A to B, read-out: Recovery % A to B
[7] = Caco-2, pH 7.4, Caco-2, solution recovery, B to A, read-out: Recovery % B to A
[8] = Caco-2, pH 7.4, Caco-2, total recovery with cell lysate, A to B, read-out: Recovery % with Cell Lysate A to B
[9] = Caco-2, pH 7.4, Caco-2, total recovery with cell lysate, B to A, read-out: Recovery % with Cell Lysate B to A

SMILES: N#Cc1cnc(Nc2cc(-c3cc4ccccc4cc3OCCN)[nH]n2)cn1 [Compound 2.6, 5-((5-(3-(2-aminoethoxy)naphthalen-2-yl)-1H-pyrazol-3-yl)amino) pyrazine-2-carbonitrile]
- inhibition at 0.03 µM (CHK-1 kinase): 61%
- inhibition at 0.3 µM (CHK-1 kinase): 90%
- IC50 (CHK-1 kinase): 0.0157 µM
- microsomal CLint at 1 μM [1]: 3 µL/min/mg
- microsomal CLint at 1 μM [2]: 153 µL/min/mg
- microsomal CLint at 1 μM [3]: 58 µL/min/mg
- solubility kinetic at 1 h [4]: 18.8 µM (≈ 6.98 µg/mL)

- inhibition at 0.03 µM (CHK-1 kinase): 44%
- inhibition at 0.3 µM (CHK-1 kinase): 65%
- microsomal CLint at 1 μM [1]: 80 µL/min/mg
- microsomal CLint at 1 μM [2]: 243 µL/min/mg
- microsomal CLint at 1 μM [3]: 49 µL/min/mg
- solubility kinetic at 1 h [4]: 30.5 µM (≈ 10.6 µg/mL)
SMILES: CN1CC(Oc2ccccc2-c2cc(Nc3cnc(C#N)cn3)no2)C1 [Compound 1.10, 5-(5-(2-(1-methylazetidin-3-yloxy)phenyl)isoxazol-3-ylamino) pyrazine-2-carbonitrile]

SMILES: N#Cc1cnc(Nc2cc(-c3cc4ccccc4cc3OCC3CCNCC3)[nH]n2)cn1 [Compound 2.1, 5-(5-(3-(piperidin-4-ylmethoxy)naphthalen-2-yl)-1H-pyrazol-3-ylamino) pyrazine-2-carbonitrile]
- inhibition at 0.03 µM (CHK-1 kinase): 27%
- inhibition at 0.3 µM (CHK-1 kinase): 91%
- IC50 (CHK-1 kinase): 0.00246 µM
- microsomal CLint at 1 μM [1]: 25 µL/min/mg
- microsomal CLint at 1 μM [2]: 101 µL/min/mg
- microsomal CLint at 1 μM [3]: 36 µL/min/mg
- solubility kinetic at 1 h [4]: 34.7 µM (≈ 14.8 µg/mL)

SMILES: N#Cc1cnc(Nc2cc(-c3ccccc3OCC3CNCCO3)on2)cn1 (centres unmarked) [Compound 1.1, 5-(5-(2-(morpholin-2-ylmethoxy)phenyl)isoxazol-3-ylamino) pyrazine-2-carbonitrile]
- inhibition at 0.03 µM (CHK-1 kinase): 49%
- inhibition at 0.3 µM (CHK-1 kinase): 88%
- IC50 (CHK-1 kinase): 0.0677 µM
- microsomal CLint at 1 μM [1]: 32 µL/min/mg
- microsomal CLint at 1 μM [2]: 100 µL/min/mg
- microsomal CLint at 1 μM [3]: 58 µL/min/mg
- recovery at 120 min [5, 6]: 69%
- recovery at 120 min [5, 7]: 102%
- recovery at 120 min [5, 8]: 94.1%
- recovery at 120 min [5, 9]: 107%
- Papp A→B at 120 min [5]: 7 ×10⁻⁶ cm/s
- Papp B→A at 120 min [5]: 8.7 ×10⁻⁶ cm/s
- solubility kinetic at 1 h [4]: 44 µM (≈ 16.6 µg/mL)

SMILES: N#Cc1cnc(Nc2cc(-c3ccccc3OCC3CCNCC3)on2)cn1 [Compound 1.2, 5-(5-(2-(piperidin-4-ylmethoxy)phenyl)isoxazol-3-ylamino) pyrazine-2-carbonitrile]
- inhibition at 0.03 µM (CHK-1 kinase): 36%
- inhibition at 0.3 µM (CHK-1 kinase): 85%
- IC50 (CHK-1 kinase): 0.0133 µM
- microsomal CLint at 1 μM [1]: 45 µL/min/mg
- microsomal CLint at 1 μM [2]: 39 µL/min/mg
- microsomal CLint at 1 μM [3]: 27 µL/min/mg
- recovery at 120 min [5, 6]: 67.7%
- recovery at 120 min [5, 7]: 103%
- recovery at 120 min [5, 8]: 93.9%
- recovery at 120 min [5, 9]: 108%
- Papp A→B at 120 min [5]: 5.35 ×10⁻⁶ cm/s
- Papp B→A at 120 min [5]: 9.75 ×10⁻⁶ cm/s
- solubility kinetic at 1 h [4]: 45.6 µM (≈ 17.2 µg/mL)

SMILES: N#Cc1cnc(Nc2cc(-c3cc4ccccc4cc3OCCCN)[nH]n2)cn1 [Compound 2.7, 5-(5-(3-(3-aminopropoxy)naphthalen-2-yl)-1H-pyrazol-3-ylamino) pyrazine-2-carbonitrile]
- inhibition at 0.03 µM (CHK-1 kinase): 95%
- inhibition at 0.3 µM (CHK-1 kinase): 100%
- IC50 (CHK-1 kinase): 0.000933 µM
- microsomal CLint at 1 μM [1]: 6 µL/min/mg
- microsomal CLint at 1 μM [2]: 118 µL/min/mg
- microsomal CLint at 1 μM [3]: 44 µL/min/mg
- solubility kinetic at 1 h [4]: 21.3 µM (≈ 8.21 µg/mL)
